Results reported in patent US10364234B2, “Pyridinecarboxamide derivatives, preparation method thereof and pharmaceutical uses thereof” (Jiangsu Hengrui Medicine Co., Ltd., priority 2014, dated 2019).

Columns and labels:
[1] = target: human ROMK channel (Homo sapiens (Human), UniProt P48048); assay: FluxOR potassium ion channel assay, human ROMK/HEK293 cells; assay type: cell-based
Method: (§1) The method described hereafter was used for determining the inhibitory activity of the present compounds on human ROMK and rat ROMK channels.
(1) FluxOR™ potassium ion channel assay (F10016, Invitrogen)
(3) FlexStation3 microplate reader (Molecular Devices)
(4) Human ROMK/HEK293 cell: HEK293 cell line stably expressing the ROMK channel transfected by human ROMK cDNA (NCBI SEQ ID NO. NM-000220.4)
(§2) The inhibitory activity of the present compounds on human ROMK or rat ROMK channel was tested by the assay described above.

[2] = target: rat ROMK channel (Rattus norvegicus (Rat), UniProt P35560); assay: FluxOR potassium ion channel assay, rat ROMK/HEK293 cells; assay type: cell-based
From the text: as §1
(5) Rat ROMK/HEK293 cell: HEK293 cell line transfected by rat ROMK cDNA (NCBI SEQ ID NO. NM-017023.1) stably expressing the ROMK channel
The above procedures were repeated, except for replacing human ROMK/HEK293 cells with rat ROMK/HEK 293 cells, to determine the inhibition IC50 of the present compounds on rat ROMK channel.
as §2

[3] = target: ROMK potassium channel (Homo sapiens (Human), UniProt P48048); assay: Electrophysiological manual patch clamp on ROMK potassium channel (human ROMK/HEK293 cells); assay type: cell-based
From the text: The experiment was designed to test the effect of compounds on ROMK potassium channel in HEK 293 in vitro. ROMK potassium channel is stably expressed on the HEK293 cells of the present application. After the potassium ion current was stabilized, the effect of the present compound on the potassium channel was obtained by comparing the potassium current obtained before and after the use of the present compound at different concentrations.
(2) Human ROMK/HEK293 cell: HEK293 cell line stably expressing the ROMK channel transfected by human ROMK cDNA (NCBI SEQ ID NO. NM-000220.4);
(3) Extracellular fluid (mM): NaCl, 137; KCl, 4; CaCl2, 1.8; MgCl2, 1; HEPES, 10; glucose, 10; pH 7.4 (NaOH titration); and
(4) Intracellular fluid (mM): K Aspartate, 130; MgCl2, 5; EGTA 5; HEPES, 10; Tris-ATP, 4; pH 7.2 (KOH titration).
Test compounds were dissolved in dimethyl sulfoxide (DMSO) and then stocked at room temperature. […]
A manual patch clamp system was used for whole-cell current record in this experiment. […] After the ROMK potassium current recorded in the above steps was stabilized under continuous perfusion with extracellular liquid in the recording bath, the drug to be tested was perfused until the inhibition of the drug on the ROMK current reached a steady state. […]
The data were analyzed by HEKA Patchmaster, XLFit and Graphpad Prism data analysis software.

[4] = Pharmacokinetics assay in SD rats, intragastric administration; assay type: in vivo; details: both sexes, Sprague-Dawley, rat, plasma, oral 5 mg/kg
Method: Rats were used as test animals. The drug concentration in plasma at different time points was determined by LC/MS/MS after administration of the compounds to rats. The pharmacokinetic behavior of the present compounds was studied and evaluated in rats.
Four (4) healthy adult Sprague-Dawley (SD) rats, half male and half female, were purchased from SINO-BRITSH SIPPR/BK LAB. ANIMAL LTD., CO, with Certificate No.: SCXK (Shanghai) 2008-0016.
The appropriate amount of the test compounds was weighed, and added with 0.5% CMC-Na to a final volume to prepare a 0.5 mg/mL suspension by ultrasonication.
Following fasting overnight, 4 SD rats, half male and half female were administered intragastrically a dose of 5.0 mg/kg and an administration volume of 10 mL/kg.
Blood (0.1 mL) was sampled from orbital sinus before administration and 0.5 h, 1.0 h, 2.0 h, 4.0 h, 6.0 h, 8.0 h, 11.0 h, and 24.0 h after administration. The samples were stored in EDTA anticoagulation tubes, and centrifuged for 10 minutes at 3,500 rpm to separate the blood plasma. The plasma samples were stored at −20° C. The rats were fed 2 hours after administration.
The plasma concentration of the test compounds in rats after intragastric administration was determined by LC-MS/MS. Plasma samples were analyzed after pretreatment by protein precipitation.

[5] = system: SD rats; assay: Diuretic efficacy of ROMK inhibitors in SD rats; assay type: in vivo, rat; details: for urinary sodium excretion increase compared with blank control group / urinary potassium compared with normal control group: 4 h; for urine output increase compared with blank control group: total urine in 4 h; for urinary potassium compared with normal control group / serum potassium change / serum sodium change: 0.03 and 0.1 mg/kg i.g. once; for serum potassium change / serum sodium change: P>0.05
Method: The diuretic efficacy of compound 1 and positive control drug of ROMK inhibitor on SD rats was evaluated.
Male SD rats were purchased from SINO-BRITSH SIPPR/BK LAB. ANIMAL LTD., CO (Shanghai, China, Certificate No. 2008001647752, License SCXK (Shanghai) 2013-0016). The rats were 120-130 g, and fed at 5/cage, in a 12/12 hours light/dark cycle regulation, at a constant temperature of 23±1° C., humidity of 50˜60%, and free access to water and food. The male SD rats were acclimated to this condition for 7 days before their use in the diuresis experiment.
The experiment was carried out according to the method disclosed in PCT Patent Application Publication WO2010129379A1 After adaptive feeding, the rats were placed in metabolism cages and fasted overnight. The rats were weighed and randomly divided into the following groups: blank control group, compound 1 tested drug 0.03 mg/kg group and 0.1 mg/kg group, and the positive control group 0.03 mg/kg and group 0.1 mg/kg, with 10 rats for each group. Each rat was intragastrically administered each compound (ig, 1 ml/kg). The rats in the blank control group were fed with the corresponding solvent. After intragastric administration, the rats were placed in the normal cage. After 30 min, 25 ml/kg normal saline was given. Rats were put into the metabolic cages, and fasting for food and water began immediately. The total urine volume in 4 h was collected and measured. The urinary sodium and urinary potassium excretion in 4 h were also measured. The orbital serum was collected after the collection of urine to test the serum sodium and serum potassium concentrations.
The experimental data were expressed as mean±standard deviation (S.D.). The data was statistically compared using the t test of excel.

[6] = Solubility observed when preparing the dosing formulation; assay type: physicochemical; details: preparation of dosing formulation for the diuresis experiment
From the text: In this experiment, the solubility of the test compound 1 was very good. There was no delamination phenomenon. […] After fully grinding, the solubility improved. […] Moreover, the effect was dose-dependent for each dose of the test compound 1 and the positive control drug.

Sequence of human ROMK channel (P48048 whole entry): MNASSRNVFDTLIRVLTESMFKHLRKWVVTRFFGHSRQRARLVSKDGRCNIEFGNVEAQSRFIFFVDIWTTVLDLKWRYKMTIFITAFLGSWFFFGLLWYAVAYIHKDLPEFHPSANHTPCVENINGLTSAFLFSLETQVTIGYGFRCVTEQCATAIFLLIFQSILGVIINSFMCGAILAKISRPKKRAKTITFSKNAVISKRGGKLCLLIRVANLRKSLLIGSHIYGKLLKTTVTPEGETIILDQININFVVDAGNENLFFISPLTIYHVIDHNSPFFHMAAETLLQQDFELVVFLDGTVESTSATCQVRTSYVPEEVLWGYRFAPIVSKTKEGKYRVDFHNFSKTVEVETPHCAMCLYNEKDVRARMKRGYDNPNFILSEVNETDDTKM
Sequence of rat ROMK channel (P35560 whole entry): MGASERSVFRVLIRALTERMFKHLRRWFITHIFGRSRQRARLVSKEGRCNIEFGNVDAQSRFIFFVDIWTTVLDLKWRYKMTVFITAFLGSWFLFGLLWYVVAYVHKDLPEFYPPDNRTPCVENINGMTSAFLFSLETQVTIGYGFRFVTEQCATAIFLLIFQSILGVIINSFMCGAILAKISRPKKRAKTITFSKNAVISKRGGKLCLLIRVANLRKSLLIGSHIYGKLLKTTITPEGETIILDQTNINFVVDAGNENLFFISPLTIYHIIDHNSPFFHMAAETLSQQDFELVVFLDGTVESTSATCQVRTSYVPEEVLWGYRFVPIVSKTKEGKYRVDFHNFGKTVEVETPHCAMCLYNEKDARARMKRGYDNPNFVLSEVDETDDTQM
Sequence of ROMK potassium channel (P48048 whole entry): as the sequence (P48048 whole entry) above

Row | SMILES | IC50 [1] | IC50 [2] | IC50 [3] | Vd/F ([4]; read-out: Apparent Distribution Volume Vz/F) | AUC ([4]; read-out: Area Under Curve AUC) | CL/F ([4]; read-out: Clearance CLz/F) | MRT ([4]; read-out: Mean Residence Time MRT) | Cmax ([4]; read-out: Plasma Conc. Cmax) | urinary sodium excretion increase compared with blank control group ([5]; 0.03 mg/kg i.g. once) | urine output increase compared with blank control group ([5]; 0.03 mg/kg i.g. once) | urinary sodium excretion increase compared with blank control group ([5]; 0.1 mg/kg i.g. once) | urine output increase compared with blank control group ([5]; 0.1 mg/kg i.g. once) | urinary potassium compared with normal control group [5] | serum potassium change [5] | serum sodium change [5] | solubility (in words) [6]
1 | COc1cc(C(=O)NC2CCN(C[C@H](O)c3ccc4c(c3C)COC4=O)CC2)ncc1C#N [Example 1, (R)-5-cyano-N-(1-(2-hydroxy-2-(4-methyl-1-oxo-1,3-dihydroisobenzofuran-5-yl)ethyl)piperidin-4-yl)-4-methoxypicolinamide] | 40 nM | 192 nM | 18.7 nM | 3.02 ± 0.841 L/kg | 9280 ± 3050 ng·h/mL | 9.82 ± 3.5 mL/min/kg | 5.51 ± 0.75 h | 1330 ± 388 ng/mL | 3.12 times | 2.76 times | 3.31 times | 3.22 times | slightly elevated, but not statistically significant | changed a little | changed a little | very good
2 | CCOc1cc(C(=O)NC2CCN(C[C@H](O)c3ccc4c(c3C)COC4=O)CC2)ncc1C#N [Example 2, (R)-5-cyano-4-ethoxy-N-(1-(2-hydroxy-2-(4-methyl-1-oxo-1,3-dihydroisobenzofuran-5-yl)ethyl)piperidin-4-yl)picolinamide] | 28 nM | 89 nM |  |  |  |  |  |  |  |  |  |  |  |  |  | 
3 | Cc1cc(C(=O)NC2CCN(C[C@H](O)c3ccc4c(c3C)COC4=O)CC2)ncc1C#N [positive control drug, reference compound] |  |  |  |  |  |  |  |  | 1.57 times | 1.41 times | 1.65 times | 1.46 times | slightly elevated, but not statistically significant | changed a little | changed a little | poor solubility
